Experimental data reported in PMC12420824, “Discovery of a selective alpha-kinase 1 inhibitor for the rare genetic disease ROSAH syndrome” (Nature Communications, 2025).
Several values for one entry are separate records, joined by “and”; a condition that tells them apart may be missing. Identical values can stand only once.

Columns and labels:
[1] = 28 day GLP toxicology study; format: in vivo; conditions: dogs
[2] = target: STK22D/TSSK1 (Homo sapiens, UniProt Q9BXA7); assay: biochemical; conditions: read-out: % Enzyme Activity (relative to DMSO control), 10 uM
From the text: (§1) Additionally, a 10-dose dilution series of staurosporine and other enzyme-appropriate compounds were included as positive control inhibitors.

[3] = target: TAOK3/JIK (Homo sapiens, UniProt Q9H2K8); assay: HotSpot kinase assay; conditions: read-out: % Enzyme Activity (relative to DMSO control), 10 uM
Sequence of TAOK3/JIK (Q9H2K8 whole entry): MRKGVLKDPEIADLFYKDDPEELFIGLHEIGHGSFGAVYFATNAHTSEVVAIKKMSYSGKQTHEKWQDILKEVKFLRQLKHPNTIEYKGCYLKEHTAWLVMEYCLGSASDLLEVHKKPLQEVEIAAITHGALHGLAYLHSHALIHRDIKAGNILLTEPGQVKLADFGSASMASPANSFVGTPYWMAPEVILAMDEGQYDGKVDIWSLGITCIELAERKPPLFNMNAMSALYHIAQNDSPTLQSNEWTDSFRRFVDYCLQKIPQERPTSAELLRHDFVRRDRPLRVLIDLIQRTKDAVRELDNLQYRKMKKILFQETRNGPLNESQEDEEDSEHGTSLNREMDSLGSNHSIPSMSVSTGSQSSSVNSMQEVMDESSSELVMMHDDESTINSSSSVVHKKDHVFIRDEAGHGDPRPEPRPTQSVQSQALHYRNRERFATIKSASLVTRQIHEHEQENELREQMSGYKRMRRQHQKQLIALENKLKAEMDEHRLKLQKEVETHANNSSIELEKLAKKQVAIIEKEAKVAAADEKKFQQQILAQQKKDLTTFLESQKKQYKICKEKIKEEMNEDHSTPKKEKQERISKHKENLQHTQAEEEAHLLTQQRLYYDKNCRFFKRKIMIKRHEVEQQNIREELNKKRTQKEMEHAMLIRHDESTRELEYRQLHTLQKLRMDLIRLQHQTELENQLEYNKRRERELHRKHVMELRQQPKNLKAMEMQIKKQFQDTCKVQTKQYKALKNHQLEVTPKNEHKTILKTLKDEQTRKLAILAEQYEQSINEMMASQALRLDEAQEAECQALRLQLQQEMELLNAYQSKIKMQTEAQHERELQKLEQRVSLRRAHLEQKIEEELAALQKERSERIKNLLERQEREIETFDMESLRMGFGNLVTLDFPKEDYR

[4] = target: AXL (Homo sapiens, UniProt P30530); assay: HotSpot kinase assay; conditions: read-out: % Enzyme Activity (relative to DMSO control), 10 uM
From the text: as §1

[5] = target: CAMK1g (Homo sapiens, UniProt Q96NX5); assay: HotSpot kinase assay; conditions: read-out: % Enzyme Activity (relative to DMSO control), 10 uM
From the text: as §1

[6] = target: ZIPK/DAPK3 (Homo sapiens, UniProt O43293); assay: HotSpot kinase assay; conditions: read-out: % Enzyme Activity (relative to DMSO control), 10 uM
Sequence of ZIPK/DAPK3 (O43293 whole entry): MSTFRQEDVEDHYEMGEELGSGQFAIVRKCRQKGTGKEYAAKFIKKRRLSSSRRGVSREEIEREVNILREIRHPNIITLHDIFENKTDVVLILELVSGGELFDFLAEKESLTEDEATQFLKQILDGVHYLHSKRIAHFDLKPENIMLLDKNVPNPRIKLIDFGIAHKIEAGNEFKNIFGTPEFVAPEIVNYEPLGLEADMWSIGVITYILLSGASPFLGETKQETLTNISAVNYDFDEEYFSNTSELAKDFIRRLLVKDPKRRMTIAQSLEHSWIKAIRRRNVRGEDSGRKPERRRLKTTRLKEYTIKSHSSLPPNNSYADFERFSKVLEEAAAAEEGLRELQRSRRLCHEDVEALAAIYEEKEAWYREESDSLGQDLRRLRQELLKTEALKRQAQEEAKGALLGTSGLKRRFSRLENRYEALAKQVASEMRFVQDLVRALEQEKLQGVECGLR
From the text: as §1

[7] = target: P38a/MAPK14 (Homo sapiens, UniProt Q16539); assay: HotSpot kinase assay; conditions: read-out: % Enzyme Activity (relative to DMSO control), 10 uM
From the text: as §1

[8] = target: KDR/VEGFR2 (Homo sapiens, UniProt P35968); assay: HotSpot kinase assay; conditions: read-out: % Enzyme Activity (relative to DMSO control), 10 uM
[9] = target: CK1epsilon (Homo sapiens, UniProt P49674); assay: HotSpot kinase assay; conditions: read-out: % Enzyme Activity (relative to DMSO control), 10 uM
From the text: as §1

[10] = target: KSR2 (Homo sapiens, UniProt Q6VAB6); assay: HotSpot kinase assay; conditions: read-out: % Enzyme Activity (relative to DMSO control), 10 uM
From the text: as §1

[11] = target: CK1d (Homo sapiens, UniProt P48730); assay: HotSpot kinase assay; conditions: read-out: % Enzyme Activity (relative to DMSO control), 10 uM
[12] = target: ERK7/MAPK15 (Homo sapiens, UniProt Q8TD08); assay: HotSpot kinase assay; conditions: read-out: % Enzyme Activity (relative to DMSO control), 10 uM
From the text: as §1

[13] = target: CDK1/cyclin E (Homo sapiens, UniProt P06493); assay: HotSpot kinase assay; conditions: read-out: % Enzyme Activity (relative to DMSO control), 10 uM
[14] = target: DDR1 (Homo sapiens, UniProt Q08345); assay: HotSpot kinase assay; conditions: read-out: % Enzyme Activity (relative to DMSO control), 10 uM
From the text: as §1

[15] = target: PKD2/PRKD2 (Homo sapiens, UniProt Q9BZL6); assay: HotSpot kinase assay; conditions: read-out: % Enzyme Activity (relative to DMSO control), 10 uM
From the text: as §1

[16] = target: LKB1 (Homo sapiens, UniProt Q15831); assay: HotSpot kinase assay; conditions: read-out: % Enzyme Activity (relative to DMSO control), 10 uM
Sequence of LKB1 (Q15831 whole entry): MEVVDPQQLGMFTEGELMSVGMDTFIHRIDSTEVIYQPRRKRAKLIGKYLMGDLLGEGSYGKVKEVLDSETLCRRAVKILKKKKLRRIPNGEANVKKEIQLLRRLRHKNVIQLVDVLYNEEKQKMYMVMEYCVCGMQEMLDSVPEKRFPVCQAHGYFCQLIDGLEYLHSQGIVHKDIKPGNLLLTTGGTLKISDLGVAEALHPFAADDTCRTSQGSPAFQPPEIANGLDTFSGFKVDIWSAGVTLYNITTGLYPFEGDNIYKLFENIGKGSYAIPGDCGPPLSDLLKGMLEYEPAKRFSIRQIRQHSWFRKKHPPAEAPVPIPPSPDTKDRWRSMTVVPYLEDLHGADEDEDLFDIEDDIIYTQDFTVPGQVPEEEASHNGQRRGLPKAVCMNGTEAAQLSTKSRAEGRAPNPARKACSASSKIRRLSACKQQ
Sequence of LKB1 (Q7RTN6 whole entry partner): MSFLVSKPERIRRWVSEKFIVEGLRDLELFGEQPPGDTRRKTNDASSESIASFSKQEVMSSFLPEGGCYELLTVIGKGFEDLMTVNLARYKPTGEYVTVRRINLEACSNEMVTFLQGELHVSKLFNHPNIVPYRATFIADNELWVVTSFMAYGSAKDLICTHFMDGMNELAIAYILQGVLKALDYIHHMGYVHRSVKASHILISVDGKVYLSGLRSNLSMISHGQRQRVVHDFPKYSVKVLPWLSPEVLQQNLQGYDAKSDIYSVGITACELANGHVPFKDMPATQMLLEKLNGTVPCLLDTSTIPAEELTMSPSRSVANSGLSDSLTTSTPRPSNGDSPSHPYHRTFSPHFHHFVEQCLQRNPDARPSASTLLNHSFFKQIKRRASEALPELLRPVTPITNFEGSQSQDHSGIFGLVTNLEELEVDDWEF
Sequence of LKB1 (Q9Y376 whole entry partner): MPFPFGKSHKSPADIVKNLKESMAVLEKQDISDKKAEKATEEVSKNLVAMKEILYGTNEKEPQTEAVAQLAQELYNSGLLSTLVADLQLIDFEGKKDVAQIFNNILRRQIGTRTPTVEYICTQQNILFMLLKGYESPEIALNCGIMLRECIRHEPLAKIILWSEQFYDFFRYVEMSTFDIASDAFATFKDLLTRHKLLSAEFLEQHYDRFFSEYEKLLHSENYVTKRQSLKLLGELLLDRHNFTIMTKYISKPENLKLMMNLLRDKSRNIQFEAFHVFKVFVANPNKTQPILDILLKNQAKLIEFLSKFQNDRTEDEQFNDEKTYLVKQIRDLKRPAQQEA
From the text: as §1

[17] = target: PRKX (Homo sapiens, UniProt P51817); assay: HotSpot kinase assay; conditions: read-out: % Enzyme Activity (relative to DMSO control), 10 uM
From the text: as §1

[18] = target: PIM2 (Homo sapiens, UniProt Q9P1W9); assay: HotSpot kinase assay; conditions: read-out: % Enzyme Activity (relative to DMSO control), 10 uM
From the text: as §1

[19] = target: CDK2/CYCLIN E (Homo sapiens, UniProt P24941); assay: HotSpot kinase assay; conditions: read-out: % Enzyme Activity (relative to DMSO control), 10 uM
From the text: as §1

[20] = target: HGK/MAP4K4 (Homo sapiens, UniProt O95819); assay: HotSpot kinase assay; conditions: read-out: % Enzyme Activity (relative to DMSO control), 10 uM
From the text: as §1

[21] = target: CLK1 (Homo sapiens, UniProt P49759); assay: HotSpot kinase assay; conditions: read-out: % Enzyme Activity (relative to DMSO control), 10 uM
From the text: as §1

[22] = target: CAMKK1 (Homo sapiens, UniProt Q8N5S9); assay: HotSpot kinase assay; conditions: read-out: % Enzyme Activity (relative to DMSO control), 10 uM
From the text: as §1

[23] = target: GSK3b (Homo sapiens, UniProt P49841); assay: HotSpot kinase assay; conditions: read-out: % Enzyme Activity (relative to DMSO control), 10 uM
From the text: as §1

[24] = target: EPHA5 (Homo sapiens, UniProt P54756); assay: HotSpot kinase assay; conditions: read-out: % Enzyme Activity (relative to DMSO control), 10 uM
Sequence of EPHA5 (P54756 25-1037): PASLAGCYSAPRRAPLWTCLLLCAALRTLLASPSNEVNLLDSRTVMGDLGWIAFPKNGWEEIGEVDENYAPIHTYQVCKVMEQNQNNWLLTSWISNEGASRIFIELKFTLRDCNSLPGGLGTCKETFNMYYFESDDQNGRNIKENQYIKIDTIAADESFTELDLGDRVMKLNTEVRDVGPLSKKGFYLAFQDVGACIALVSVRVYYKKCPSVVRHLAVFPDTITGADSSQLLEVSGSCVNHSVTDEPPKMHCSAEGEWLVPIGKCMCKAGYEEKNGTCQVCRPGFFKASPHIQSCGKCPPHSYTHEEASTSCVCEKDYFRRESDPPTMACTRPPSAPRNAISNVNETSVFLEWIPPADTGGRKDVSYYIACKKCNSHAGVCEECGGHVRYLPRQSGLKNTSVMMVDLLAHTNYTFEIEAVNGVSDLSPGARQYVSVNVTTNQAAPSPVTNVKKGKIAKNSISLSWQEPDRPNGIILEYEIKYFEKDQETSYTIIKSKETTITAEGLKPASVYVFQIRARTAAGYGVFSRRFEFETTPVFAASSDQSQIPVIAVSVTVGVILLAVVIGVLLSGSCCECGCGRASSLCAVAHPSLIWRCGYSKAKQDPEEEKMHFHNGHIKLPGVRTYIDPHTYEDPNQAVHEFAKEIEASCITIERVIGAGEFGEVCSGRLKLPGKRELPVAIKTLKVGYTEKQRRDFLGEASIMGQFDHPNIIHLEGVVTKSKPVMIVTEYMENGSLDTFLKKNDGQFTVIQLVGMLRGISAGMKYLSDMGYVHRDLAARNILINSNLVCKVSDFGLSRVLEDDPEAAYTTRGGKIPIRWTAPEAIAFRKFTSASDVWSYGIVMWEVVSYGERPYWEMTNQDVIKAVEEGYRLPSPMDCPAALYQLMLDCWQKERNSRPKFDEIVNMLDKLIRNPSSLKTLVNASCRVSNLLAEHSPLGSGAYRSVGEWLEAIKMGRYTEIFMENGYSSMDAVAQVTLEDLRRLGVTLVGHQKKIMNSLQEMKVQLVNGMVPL
From the text: as §1

[25] = target: JNK1 (Homo sapiens, UniProt P45983); assay: HotSpot kinase assay; conditions: read-out: % Enzyme Activity (relative to DMSO control), 10 uM
From the text: as §1

[26] = target: JAK3 (Homo sapiens, UniProt P52333); assay: HotSpot kinase assay; conditions: read-out: % Enzyme Activity (relative to DMSO control), 10 uM
[27] = target: NEK9 (Homo sapiens, UniProt Q8TD19); assay: HotSpot kinase assay; conditions: read-out: % Enzyme Activity (relative to DMSO control), 10 uM
[28] = target: MARK3 (Homo sapiens, UniProt P27448); assay: HotSpot kinase assay; conditions: read-out: % Enzyme Activity (relative to DMSO control), 10 uM
From the text: as §1

[29] = target: PLK3 (Homo sapiens, UniProt Q9H4B4); assay: HotSpot kinase assay; conditions: read-out: % Enzyme Activity (relative to DMSO control), 10 uM
[30] = target: DYRK4 (Homo sapiens, UniProt Q9NR20); assay: HotSpot kinase assay; conditions: read-out: % Enzyme Activity (relative to DMSO control), 10 uM
[31] = target: RSK2 (Homo sapiens, UniProt P51812); assay: HotSpot kinase assay; conditions: read-out: % Enzyme Activity (relative to DMSO control), 10 uM
Sequence of RSK2 (P51812 whole entry): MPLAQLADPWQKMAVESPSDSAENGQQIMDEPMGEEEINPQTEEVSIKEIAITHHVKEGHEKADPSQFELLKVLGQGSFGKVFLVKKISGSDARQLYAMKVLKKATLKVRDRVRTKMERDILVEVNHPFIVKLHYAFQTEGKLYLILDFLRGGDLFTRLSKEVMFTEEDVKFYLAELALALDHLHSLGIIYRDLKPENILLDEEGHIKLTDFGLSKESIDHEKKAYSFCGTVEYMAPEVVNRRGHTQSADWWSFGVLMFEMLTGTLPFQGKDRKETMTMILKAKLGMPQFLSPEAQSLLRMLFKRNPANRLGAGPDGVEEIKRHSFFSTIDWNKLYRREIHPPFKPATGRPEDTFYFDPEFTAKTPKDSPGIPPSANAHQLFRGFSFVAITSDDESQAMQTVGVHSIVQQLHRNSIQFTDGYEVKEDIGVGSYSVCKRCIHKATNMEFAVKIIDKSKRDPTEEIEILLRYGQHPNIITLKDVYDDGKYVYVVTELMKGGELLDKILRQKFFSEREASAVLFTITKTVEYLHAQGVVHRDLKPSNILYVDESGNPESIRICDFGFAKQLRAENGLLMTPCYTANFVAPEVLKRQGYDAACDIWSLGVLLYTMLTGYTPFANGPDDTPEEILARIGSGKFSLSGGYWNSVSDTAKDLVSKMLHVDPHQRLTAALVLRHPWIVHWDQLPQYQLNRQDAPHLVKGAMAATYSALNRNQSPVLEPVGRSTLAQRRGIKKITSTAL
From the text: as §1

[32] = target: P38d/MAPK13 (Homo sapiens, UniProt O15264); assay: HotSpot kinase assay; conditions: read-out: % Enzyme Activity (relative to DMSO control), 10 uM
From the text: as §1

[33] = target: JAK2 (Homo sapiens, UniProt O60674); assay: HotSpot kinase assay; conditions: read-out: % Enzyme Activity (relative to DMSO control), 10 uM
[34] = target: MAPKAPK2 (Homo sapiens, UniProt P49137); assay: HotSpot kinase assay; conditions: read-out: % Enzyme Activity (relative to DMSO control), 10 uM
From the text: as §1

[35] = target: ALK (Homo sapiens, UniProt Q9UM73); assay: HotSpot kinase assay; conditions: read-out: % Enzyme Activity (relative to DMSO control), 10 uM
From the text: as §1

[36] = target: BRSK1 (Homo sapiens, UniProt Q8TDC3); assay: HotSpot kinase assay; conditions: read-out: % Enzyme Activity (relative to DMSO control), 10 uM
From the text: as §1

[37] = target: c-Src (Homo sapiens, UniProt P12931); assay: HotSpot kinase assay; conditions: read-out: % Enzyme Activity (relative to DMSO control), 10 uM
Sequence of c-Src (P12931 whole entry): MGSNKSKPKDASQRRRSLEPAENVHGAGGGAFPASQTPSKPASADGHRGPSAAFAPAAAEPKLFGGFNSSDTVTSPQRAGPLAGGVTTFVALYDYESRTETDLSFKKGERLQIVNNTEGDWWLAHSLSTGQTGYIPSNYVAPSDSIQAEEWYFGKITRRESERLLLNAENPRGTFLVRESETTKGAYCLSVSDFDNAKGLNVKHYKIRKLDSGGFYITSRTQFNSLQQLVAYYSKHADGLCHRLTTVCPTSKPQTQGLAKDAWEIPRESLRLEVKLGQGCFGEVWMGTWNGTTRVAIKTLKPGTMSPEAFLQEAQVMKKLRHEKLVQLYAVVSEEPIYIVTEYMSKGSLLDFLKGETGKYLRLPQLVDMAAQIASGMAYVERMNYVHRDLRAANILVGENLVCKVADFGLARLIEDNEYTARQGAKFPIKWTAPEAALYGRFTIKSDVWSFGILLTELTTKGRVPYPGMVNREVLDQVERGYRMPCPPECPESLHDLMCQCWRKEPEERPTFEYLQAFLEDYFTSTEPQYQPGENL

[38] = target: IKKb/IKBKB (Homo sapiens, UniProt O14920); assay: HotSpot kinase assay; conditions: read-out: % Enzyme Activity (relative to DMSO control), 10 uM
[39] = test system: HEK-293 cells transfected with GFP-TIFA; assay: DF-006-induced TIFAsome formation
Method: Curve fitting and IC50 value calculations were performed with GraphPad Prism 6.
HEK-293 cells were purchased from the Cell Bank of The Chinese Academy of Sciences and routinely cultured in DMEM/High-Glucose (Hyclone). For TIFAsome analyses, the coding sequence for the GFP-TIFA fusion protein was cloned into the pcDNA3.1 plasmid. […] Each condition was conducted in sextuplicate. Cells were fixed with 4% paraformaldehyde and stained with DAPI (Shanghai Zhenghuang, Shanghai, China; C1005). Fluorescent images were acquired using a Motic upright fluorescent microscope (PA53 BIO FS6).

C#C[C@@](C)(c1ccc(Cl)cc1)c1csc(NC(=O)c2c(F)cc(N3CCNCC3)cc2F)n1 (stereo in doubt) [DF-003]
general immunosuppression [1]: no general immunosuppression was observed
remaining activity at 10 µM [2]: 94.2%
remaining activity at 10 µM [3]: 21.7%
remaining activity at 10 µM [4]: 47.9%
remaining activity at 10 µM [5]: 56.6%
remaining activity at 10 µM [6]: 68.5%
remaining activity at 10 µM [7]: 74.6%
remaining activity at 10 µM [8]: 76%
remaining activity at 10 µM [9]: 76.9%
remaining activity at 10 µM [10]: 79.5%
remaining activity at 10 µM [11]: 81.5%
remaining activity at 10 µM [12]: 83.5%
remaining activity at 10 µM [13]: 83.6%
remaining activity at 10 µM [14]: 85.1%
remaining activity at 10 µM [15]: 85.9%
remaining activity at 10 µM [16]: 86.5%
remaining activity at 10 µM [17]: 87.4%
remaining activity at 10 µM [18]: 87.6%
remaining activity at 10 µM [19]: 90.1%
remaining activity at 10 µM [20]: 90.5%
remaining activity at 10 µM [21]: 91.2%
remaining activity at 10 µM [22]: 92.8%
remaining activity at 10 µM [23]: 93.3%
remaining activity at 10 µM [24]: 95.5%
remaining activity at 10 µM [25]: 97.7%
remaining activity at 10 µM [26]: 98.8%
remaining activity at 10 µM [27]: 100%
remaining activity at 10 µM [28]: 102%
remaining activity at 10 µM [29]: 102%
remaining activity at 10 µM [30]: 104%
remaining activity at 10 µM [31]: 104%
remaining activity at 10 µM [32]: 104%
remaining activity at 10 µM [33]: 108%
remaining activity at 10 µM [34]: 108%
remaining activity at 10 µM [35]: 115%
remaining activity at 10 µM [36]: 116%
remaining activity at 10 µM [37]: 129%
remaining activity at 10 µM [38]: 152%
effect on DF-006-induced TIFAsome formation ([39]; 10 nM to 1 μM, 1 μM DF-006 1 h): potently suppressed DF-006-induced TIFAsome formation
Cells with TIFAsomes /GFP positive cells (%) ([39]; 200 nM DF-003+1 μM DF-006): 2.74% and 2.86% and 1.45% and 4.74% and 3.09%
Cells with TIFAsomes /GFP positive cells (%) ([39]; 1 μM DF-003+1 μM DF-006): 1.25% and 0% and 3.05% and 2.92% and 5.22%
